Usually pEC50 stands for the negative decadic logarithm of the EC50, by convention in mol/L.

pEC50: −log10 of the molar value.

Common to all, as to format: cell-based
The target of test [1] is T1, AGTR1 (Homo sapiens, UniProt P30556).
T1 construct: host or cells: Pathunter CHO-K1 AGTR1 β-arrestin cell line (CHO-K1)
T1 sequence (P30556 1-359): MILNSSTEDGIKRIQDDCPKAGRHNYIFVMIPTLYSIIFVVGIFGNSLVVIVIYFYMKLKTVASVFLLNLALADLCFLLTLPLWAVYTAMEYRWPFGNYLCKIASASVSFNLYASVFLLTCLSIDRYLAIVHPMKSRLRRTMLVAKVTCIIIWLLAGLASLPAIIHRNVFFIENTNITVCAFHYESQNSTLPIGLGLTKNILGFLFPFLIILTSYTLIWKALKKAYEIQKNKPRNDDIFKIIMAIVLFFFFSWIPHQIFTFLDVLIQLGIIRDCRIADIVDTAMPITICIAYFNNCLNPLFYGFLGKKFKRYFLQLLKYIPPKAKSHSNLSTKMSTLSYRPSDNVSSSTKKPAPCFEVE
Put plainly: DiscoveRx IP1 accumulation assay (HTRF), agonist mode, Pathunter CHO-K1 AGTR1 β-arrestin cell line. As to conditions: for pEC50: read-out: IP-1 EC50. The protocol: In one aspect of the invention, signaling bias of compounds was assessed by comparing the relative activity of compounds to activate both the β-arrestin and Gq signaling pathways. In order to confirm signaling bias, compounds were studied in two different assay formats.
DiscoveRx β-arrestin2 Recruitment and IP1 Assays
Gq activation can be assessed by measuring the accumulation of inositol phosphates (e.g. IP3, IP1) that are liberated following activation of phospholipase C by Gq (Thomsen, Frazer et al. 2005). In the current invention we have utilized the DiscoveRx Pathunter CHO-K1 AGTR1 β-arrestin cell line to also measure IP1 accumulation in response to compounds. IP1 accumulation was measured in both agonist and antagonist modes. In agonist mode, cells are plated as above 14-16 hours before the experiment. The medium is then removed and compounds at varying concentrations added in a final volume of 20 μl. The cells are incubated at 37° C. for 90 min. IP1 accumulation detected using a commercial HTRF assay according to manufacturer's instructions (Cisbio, Bedford, MA). Specifically, 4 μl of D2-conjugate solution (diluted 1:20 in Cisbio HTRF assay buffer) is added to each well, followed by the addition of 4 μl of anti-IP1 cryptate diluted 1:20 in HTRF assay buffer and the plates incubated for 20 min at room temperature. 14 μl from each well is measured using an Envision multi-label reader and data processed using Toolset for Runmaster QCMulti. Concentration-response curves are fitted and EC50s (agonist mode) and IC50s (antagonist mode) estimated using a 4-parameter logistic equation. Compound activities are reported as a relative percentage to the maximal effect of All in the assays.

Test [2] deals with T2, hAT1R (Homo sapiens, UniProt P30556).
T2 sequence (P30556 1-359): T1 sequence (P30556 1-359)
Put plainly: BRET β-arrestin2 biosensor assay, higher receptor expression (hAT1R 5 ng/well), HEK293 cells. As to conditions: for pEC50: High AT1R Expression. (In general: In BRET a luciferase serves as donor, and the signal depends on an acceptor being close.)

In test [3] the target is T1, AGTR1. Put plainly: DiscoveRx β-arrestin2 recruitment assay (enzyme complementation, Pathunter CHO-K1 AGTR1 β-arrestin cell line). The note with it: DiscoveRx β-arrestin2 recruitment; for DiscoveRx β-arrestin2 Ymax (%): maximal response. The protocol:
In one aspect of the invention, signaling bias of compounds was assessed by comparing the relative activity of compounds to activate both the β-arrestin and Gq signaling pathways. In order to confirm signaling bias, compounds were studied in two different assay formats. DiscoveRx β-arrestin2 Recruitment and IP1 Assays β-arrestin2 recruitment to activated receptors can be assessed using an enzyme complementation method (Zhao, Jones et al. 2008). […] Cells (5000/well) were plated into 1536 well plates (Cellocoat plates, Greiner Bio One, Monroe, NC) 14-16 hours before each experiment in 20 μl DMEM/F12 medium (Thermo-Fisher Scientific, Carlsbad, CA) containing heat-inactivated 1% fetal bovine serum. Subsequently, the compounds of interest were added at varying concentrations to the wells in a volume of 200 nl and the cells incubated for 90 min at 37° C. The detection reagent (10 μl) was added to each well and the plates incubated at room temperature for 1 hour before measurement of chemiluminescence using an EnVision Multilabel Reader (Perkin-Elmer, Waltham, MA). The data are processed using Toolset for Runmaster QCMulti. Concentration-response curves are fitted and EC50s (agonist mode) and IC50s (antagonist mode) estimated using a 4-parameter logistic equation. Compound activities are reported as a relative percentage to the maximal effect of All in the assays.

For `CCCCOC(=O)NS(=O)(=O)c1sc(-c2ccccc2C)cc1-c1ccc(Cn2c(CC)nc3c(C)cc(C)nc32)cn1` [Example 39, Butyl (3-(5-((2-ethyl-5,7-dimethyl-3H-imidazo[4,5-b]pyridin-3-yl)methyl)pyridin-2-yl)-5-(o-tolyl)thiophen-2-yl)sulfonylcarbamate], in test [1], the “IP-1 Ymax (%)” value was found to be 4.8% and the pEC50 is 6.90. In test [2], the “BRET β-Arrestin2 High AT1R Expression Ymax (%)” value amounted to 37.9% and the pEC50 is 7.73. Besides, in test [3], the pEC50 is 7.48 and the “DiscoveRx β-arrestin2 Ymax (%)” value is 23.3%.
`CCCCC1=NC2(CCCC2)C(=O)N1Cc1ccc(-c2cc(-c3ccccc3)ccc2-c2noc(=O)[nH]2)cc1` [Example 143, 3-(4″-((2-butyl-4-oxo-1,3-diazaspiro[4.4]non-1-en-3-yl)methyl)-[1,1′:3′,1″-terphenyl]-4′-yl)-1,2,4-oxadiazol-5(4H)-one]: in test [1], the “IP-1 Ymax (%)” value turned out to be 5.2% and the negative-log EC50 (pEC50) is 7.74. Also, in test [2], the “BRET β-Arrestin2 High AT1R Expression Ymax (%)” value is 94.6% and the pEC50 is 8.09. Besides, in test [3], the negative-log EC50 (pEC50) was 8.08 and the “DiscoveRx β-arrestin2 Ymax (%)” value turned out to be 47.4%.
For the compound `CCc1nc2c(C)cc(C)nc2n1Cc1ccc(-c2cc(N3CCC(OC)CC3)ccc2-c2nn[nH]n2)cc1` [Example 87], in test [1], the “IP-1 Ymax (%)” value stood at 7.2% and the negative-log EC50 (pEC50) is 7.38. For the same compound, in test [2], the “BRET β-Arrestin2 High AT1R Expression Ymax (%)” value was found to be 29.1% and the pEC50 is 6.35. Also, in test [3], the pEC50 is 7.37 and the “DiscoveRx β-arrestin2 Ymax (%)” value was found to be 16.7%.
For `CCc1nc2c(C)cc(C)nc2n1Cc1ccc(-c2cc(C3=CCCCC3)ccc2-c2nn[nH]n2)cc1` [Example 70, 3-((6′-(2H-Tetrazol-5-yl)-2″,3″,4″,5″-tetrahydro-[1,1′:3′,1″-terphenyl]-4-yl)methyl)-2-ethyl-5,7-dimethyl-3H-imidazo[4,5-b]pyridine], the pEC50 in test [1] was under 4.30. Also, in test [2], the “BRET β-Arrestin2 High AT1R Expression Ymax (%)” value turned out to be 94.7% and the pEC50 is 8.15. Moreover, in test [3], the pEC50 was 7.88 and the “DiscoveRx β-arrestin2 Ymax (%)” value is given as 58.7%.
For the compound `CCCCC1=NC2(CCCC2)C(=O)N1Cc1ccc(-c2cc(-c3cccc(F)c3F)ccc2-c2nn[nH]n2)cc1` [Example 135], the pEC50 in test [1] is under 4.00. Besides, in test [2], the “BRET β-Arrestin2 High AT1R Expression Ymax (%)” value turned out to be 94.8% and the pEC50 was 7.54. Also, in test [3], the negative-log EC50 (pEC50) was 7.86 and the “DiscoveRx β-arrestin2 Ymax (%)” value worked out at 38.6%.
With `CCc1nc2c(C)cc(C)nc2n1Cc1ccc(-c2cc(-c3cccc(C(=O)N(C)C)c3)ccc2-c2nn[nH]n2)cc1` [Example 23], in test [1], the “IP-1 Ymax (%)” value was determined as 7.3% and the negative logarithm of the EC50 (pEC50) is 6.68. In test [2], the “BRET β-Arrestin2 High AT1R Expression Ymax (%)” value stood at 66.3% and the negative logarithm of the EC50 (pEC50) is 6.77. Moreover, in test [3], the pEC50 was 7.27 and the “DiscoveRx β-arrestin2 Ymax (%)” value is recorded as 26.8%.
Turning to `CCc1nc2c(C)cc(C)nc2n1Cc1ccc(-c2cc(C3CCCCN3)ccc2-c2nn[nH]n2)cc1` (single isomer, unassigned) [Example 75, 2-ethyl-5,7-dimethyl-3-((5′-(piperidin-2-yl)-2′-(2H-tetrazol-5-yl)-[1,1′-biphenyl]-4-yl)methyl)-3H-imidazo[4,5-b]pyridine], the negative-log EC50 (pEC50) in test [1] is under 4.00; in test [2] it was 5.95; in test [3], 6.27. The “BRET β-Arrestin2 High AT1R Expression Ymax (%)” value in test [2] was found to be 53.9%. Also, the “DiscoveRx β-arrestin2 Ymax (%)” value in test [3] is given as 7.1%.
As for `CCCCC1=NC2(CCCC2)C(=O)N1Cc1ccc(-c2cc(-c3cccc(F)c3F)ccc2-c2noc(=O)[nH]2)cc1` [Example 144, 3-(4″-((2-butyl-4-oxo-1,3-diazaspiro[4.4]non-1-en-3-yl)methyl)-2,3-difluoro-[1,1′:3′,1″-terphenyl]-4′-yl)-1,2,4-oxadiazol-5(4H)-one], the pEC50 in test [1] was under 4.00. For the same compound, in test [2], the “BRET β-Arrestin2 High AT1R Expression Ymax (%)” value came out at 104.0% and the negative logarithm of the EC50 (pEC50) is 7.57. Besides, in test [3], the negative-log EC50 (pEC50) was 7.91 and the “DiscoveRx β-arrestin2 Ymax (%)” value is given as 33.3%.
For the compound `CCCCc1nc(Cl)c(CO)n1Cc1ccc(-c2cc(-c3ccccc3)ccc2-c2nnn[nH]2)cc1` [Example 35, (1-((6′-(1H-Tetrazol-5-yl)-[1,1′:3′,1″-terphenyl]-4-yl)methyl)-2-butyl-4-chloro-1H-imidazol-5-yl)methanol], the pEC50 in test [1] was under 4.30. For the same compound, in test [2], the “BRET β-Arrestin2 High AT1R Expression Ymax (%)” value is listed as 76.7% and the pEC50 is 6.83. In addition, in test [3], the negative-log EC50 (pEC50) is 7.19 and the “DiscoveRx β-arrestin2 Ymax (%)” value worked out at 28.2%.
`CCCCC1=NC2(CCCC2)C(=O)N1Cc1ccc(-c2cc(-c3ccc(OC(F)F)cn3)ccc2-c2nn[nH]n2)cc1` [Example 136]: in test [1], the “IP-1 Ymax (%)” value is recorded as 18.1% and the negative logarithm of the EC50 (pEC50) was 7.84. In test [2], the “BRET β-Arrestin2 High AT1R Expression Ymax (%)” value was found to be 94.2% and the pEC50 is 8.00. In test [3], the negative-log EC50 (pEC50) is 8.31 and the “DiscoveRx β-arrestin2 Ymax (%)” value is on record as 43.2%.
`CCCCC1=NC2(CCCC2)C(=O)N1Cc1ccc(-c2cc(-c3ccc(CO)cc3)ccc2-c2nn[nH]n2)cc1` [Example 126]: the pEC50 in test [1] is under 4.00; in test [2], 7.33; in test [3], 8.28. The “BRET β-Arrestin2 High AT1R Expression Ymax (%)” value in test [2] stood at 65.1%. Further, the “DiscoveRx β-arrestin2 Ymax (%)” value in test [3] was found to be 17.3%.
For the compound `CCc1nc2c(C)cc(C)nc2n1Cc1ccc(-c2cc(-c3cccs3)ccc2-c2nn[nH]n2)cc1` [Example 12], the negative logarithm of the EC50 (pEC50) in test [1] was under 6.00. In test [2], the “BRET β-Arrestin2 High AT1R Expression Ymax (%)” value came out at 83.6% and the pEC50 is 8.05. Also, in test [3], the negative-log EC50 (pEC50) is 8.20 and the “DiscoveRx β-arrestin2 Ymax (%)” value is 21.4%.
Consider `CCCCC(=O)N(Cc1ccc(-c2cc(-c3ccccc3)ccc2-c2nn[nH]n2)cc1)[C@H](C(=O)O)C(C)C` [Example 34, (S)-2-(N-((6′-(2H-Tetrazol-5-yl)-[1,1′:3′,1″-terphenyl]-4-yl)methyl)pentanamido)-3-methylbutanoic acid], for which, in test [1], the “IP-1 Ymax (%)” value is 3.8% and the pEC50 is 6.75. Further, in test [2], the “BRET β-Arrestin2 High AT1R Expression Ymax (%)” value came to 68.4% and the pEC50 was 7.30. Further, in test [3], the pEC50 was 7.39 and the “DiscoveRx β-arrestin2 Ymax (%)” value was 35.6%.
`CCc1nc2c(C)cc(C)nc2n1Cc1ccc(-c2cc(N3CCC(C)CC3)ccc2-c2nn[nH]n2)cc1` [Example 97, 2-ethyl-5,7-dimethyl-3-((5′-(4-methylpiperidin-1-yl)-2′-(2H-tetrazol-5-yl)-[1,1′-biphenyl]-4-yl)methyl)-3H-imidazo[4,5-b]pyridine]: in test [1], the “IP-1 Ymax (%)” value is 7.3% and the negative-log EC50 (pEC50) was 7.33. Besides, in test [2], the “BRET β-Arrestin2 High AT1R Expression Ymax (%)” value is recorded as 79.7% and the pEC50 was 7.51. In addition, in test [3], the negative-log EC50 (pEC50) is 7.82 and the “DiscoveRx β-arrestin2 Ymax (%)” value was found to be 34.3%.
Take `CCc1nc2c(C)cc(C)nc2n1Cc1ccc(-c2cc(N3CCC(F)(F)CC3)ccc2-c2nn[nH]n2)cc1` [Example 82, 3-((5′-(4,4-difluoropiperidin-1-yl)-2′-(2H-tetrazol-5-yl)-[1,1′-biphenyl]-4-yl)methyl)-2-ethyl-5,7-dimethyl-3H-imidazo[4,5-b]pyridine]: the pEC50 in test [1] was under 4.00; in test [2], 6.85; in test [3], 7.02. Also, in test [2], the “BRET β-Arrestin2 High AT1R Expression Ymax (%)” value turned out to be 49.6%. Moreover, in test [3], the “DiscoveRx β-arrestin2 Ymax (%)” value is recorded as 16.8%.

The values are drawn from patent publication US12037324B2, “Biarylmethyl heterocycles” (Université de Montréal, priority 2016, dated 2024).
